Data reported in article PMC12811658, “Design, Synthesis, and Structural Evolution of Pseudo‐Natural Product IDO1 Inhibitors and Degraders” (Angewandte Chemie (International Ed. in English), 2025).

What was measured:
[1] = test system: global proteome of SKOV-3 cells; test: TMT-based global proteome profiling; type: cell-based; details: 10 µM vs DMSO, 4 h, LC-MS/MS
Description: Figure 3 Comparison of IDO1 degradation efficiency for selected compounds. a) Detection of IDO1 levels using immunostaining. IFN‐γ stimulated HeLa cells were treated with the compounds for 24 h. IDO1 protein abundance was detected with IDO1 antibody. Data are mean values ± SD, n = 3. b) IDO1 protein levels in BxPC3 cells upon compounds treatment were detected using immunoblotting. BxPC3 cells were treated with IFN‐γ for 24 h prior to washout, followed by addition of compounds. Representative blot and quantified band intensities are shown (mean values ± SD, n = 3). See Figure S11a S12a for the uncropped blots. c) Key functions of hit compounds that influence degradation efficiency. d) Heatmap for IDO degradation efficiency. IDO1 levels were monitored as described in (c). See Table S1 for mean values and Figure S11b for the uncropped blots. e)–g) Dose dependent degradation of IDO1 protein in BxPC3 cells treated with iDeg‐7–9 and detected as described in (c). Representative data of n = 3 except for iDeg‐9 (n = 4). See Figure S12 S13 for the uncropped blots. h) Quantification of IDO1 protein levels from e‐g (mean values ± SD, n = 3 except for iDeg‐9 (n = 4). i) Tabulated inhibition and degradation ability of iDeg‐6–9. ND: not detected. j) Volcano plot of iDeg‐6‐induced changes on the global proteome. SKOV‐3 cells were treated with 10 µM iDeg‐6 or DMSO for 4 h followed by protein extraction, tryptic digest and LC‐MS/MS analysis (n = 4). Plot generated using UMSAP (T 0 = 0.5, S 0 = 0.5).
Cells were collected after trypsinization. The collected cell suspension was centrifugated and washed twice by cold PBS before lysate preparation by means of four freeze-thaw cycles in PBS containing 0.4% NP-40 alternative with protease (Roche, #5892970001) and phosphatase inhibitors (Roche, #4906845001). Protein concentration was determined by DC protein assay (BIO-RAD, #5000116) and 200 μg of protein lysates were subjected to the sample preparation and MS analysis. Protein lysates were dissolved in equal volume of 100 mM triethylammonium bicarbonate (TEAB) buffer supplemented with 7.5 µL of a 200 mM Tris(2-carboxyethyl) phosphine (TCEP) followed by an incubation step at 55 °C for 1 h. Afterwards, 7.5 µL of 375 mM iodoacetamide were added and samples were incubated for another 30 min at room temperature in the dark prior to acetone-based protein precipitation (pre-incubation at -20 °C overnight). On the next day, samples were centrifuged at 8,000 x g and 4 °C, the supernatant was aspired and protein pellets were dried at room temperature. Pellets were dissolved in digestion buffer (trypsin: protein ratio-1:50 (w/w)), in which trypsin was pre-dissolved in 10 mM HCl, and then diluted in 100 mM TEAB buffer to a final concentration of 0.4 µg/µL trypsin in 10 mM HCl, then the sample was incubated with shaking overnight at 37 °C. On the next day, samples were labelled with TMT10plex reagents (Thermo Scientific, WL320956) following the instruction of the TMT10plex Mass Tag Labeling Kit. Namely, 20 µL of the TMTpro Label reagent was added to each 100 µL sample (100 µg protein) followed by incubation for 2 h at room temperature while shaking. Afterwards, 5 µL of 5% hydroxylamine was added into each sample, and the samples were incubated for 15 min to quench the reaction. Equal amounts of each sample were combined in a new tube. The pooled samples were dried in a SpeedVac at 30 °C until the liquid evaporated completely.
All solvents used during MS measurements were LC-MS grade. The TMTpro labeled peptides were cleaned up and fractionated using a reversed-phase fractionation spin column (Thermo Fisher Scientific ^#84868) following the instructions of the Pierce™ High pH Reversed-Phase Peptide Fractionation kit. Briefly, the combined labeled samples (40 µg) were fully dissolved in 300 μL of 0.1% TFA and loaded onto an activated spin column, followed by centrifugation at 3000 g for 2 minutes. […]

recombinant human IDO1 = biological target: T1, recombinant human IDO1 (Homo sapiens, UniProt P14902); test: IDO1 enzymatic assay in vitro; type: biochemical; details: at 14 µM; pre-incubation 37 °C 45 min; mean ± SD
T1 construct: The GST-tag of IDO1 was removed to obtain untagged full-length IDO1l using PreScission protease; GST (N, cleaved yes); made in house; own inference

[2] = biological target: IDO1 protein levels in BxPC3 cells (Homo sapiens, UniProt P14902); test: IDO1 immunoblotting (degradation); type: cell-based; set-up: endogenous in cells; host or cells: BxPC3 (DSMZ), IFN-γ stimulated; details: 24 h incubation, mean ± SD
[3] = test system: IDO1 mRNA levels in SKOV-3 cells; test: RT-qPCR of IDO1 expression; type: cell-based; details: 24 h
Description: a, IDO1 mRNA levels in SKOV-3 cells.
To assess IDO1 gene expression in the SKOV3 cell line, SKOV3 cells were seeded into 24-well plates. After 24 h, the cells were treated with the indicated concentrations of compounds, followed by an additional 24 h incubation.

IDO1 protein levels in BxPC3 cells, sequence (P14902 whole entry): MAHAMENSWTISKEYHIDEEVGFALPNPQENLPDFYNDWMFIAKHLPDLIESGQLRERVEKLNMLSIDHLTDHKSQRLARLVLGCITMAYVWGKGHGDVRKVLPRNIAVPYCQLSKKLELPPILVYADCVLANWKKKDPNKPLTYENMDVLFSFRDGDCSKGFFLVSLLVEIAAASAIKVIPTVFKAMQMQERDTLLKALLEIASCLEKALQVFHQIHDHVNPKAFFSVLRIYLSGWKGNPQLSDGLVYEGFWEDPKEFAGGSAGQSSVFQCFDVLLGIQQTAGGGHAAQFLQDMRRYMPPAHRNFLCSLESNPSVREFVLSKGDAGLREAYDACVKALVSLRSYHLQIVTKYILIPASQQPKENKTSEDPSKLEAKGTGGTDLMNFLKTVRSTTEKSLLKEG
T1 sequence (P14902 whole entry): as above

## C#Cc1ccc(NC(=O)OC[C@]23CN(S(=O)(=O)c4ccc(C(C)(C)C)cc4C)C[C@H]2C[C@H]2C[C@@H]3C2(C)C)cc1 [98 (iDeg-6), ((3aS,4R,6R,7aS)-2-((4-(tert-butyl)-2-methylphenyl)sulfonyl)-5,5-dimethyloctahydro-3aH-4,6-methanoisoindol-3a-yl)methyl (4-ethynylphenyl)carbamate]
[1]
  Difference in protein level: ATP6V0D1: 0.47
  Difference in protein level: COX6C: 0.79
  Difference in protein level: COX7A2: 0.74
  Difference in protein level: COX7C: 0.6
  Difference in protein level: ERLIN2: 0.69
  Difference in protein level: IDO1: -0.53
  Difference in protein level: MT-CO2: 0.44
  Difference in protein level: MT-ND2: 0.52
  Difference in protein level: NDUFA3: 0.44
  Difference in protein level: NDUFA9: 0.58
  Difference in protein level: NDUFB3: 0.53
  Difference in protein level: NDUFB11: 0.51
  Difference in protein level: NDUFC2: 0.57
  Difference in protein level: NDUFS5: 0.51
  Difference in protein level: PHB: 0.45
  Difference in protein level: PHB2: 0.54
  Difference in protein level: TCIRG1: 0.37
  Difference in protein level: TOMM5: 0.56
  Difference in protein level: TOMM22: 0.6
  Difference in protein level: TOMM40: 0.45
  Difference in protein level: UQCRB: 0.52
  Difference in protein level: VDAC3: 0.52
Recombinant human IDO1
  inhibition at 14 µM: 40 ± 7%
[2]; 10 nM
  Max. degradation (%): 61 ± 12 (5) %
[2]; 100 nM
  Max. degradation (%): 74 ± 13 (5) %
[3]
  IDO1 transcription (in words): without affecting its transcription
